Measured values reported in PubChem BioAssay (NCI).
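96-well plates; 48 h exposure; 5 concentrations. Endpoints by linear interpolation between flanking doses. Not reached: highest tested concentration assigned. Here, GI50 denotes the concentration required for 50% inhibition of growth. At the TGI there is no net growth.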

Each compound was assayed on SN12C renal (assay: inhibition of tumour cell growth, NCI panel, 48 h).
Work on `CC(=O)O[C@@H](c1nccn1Cc1ccccc1)[C@H]1OC(C)(C)O[C@@H]1[C@H]1COC(C)(C)O1` yielded a TGI of over 100 µM.
`O=C1C=C[C@H](O)[C@@]2(CO)O[C@@H]12` showed a GI50 of 8.53 µM and a TGI of 22.4 µM.
`O=C(c1ccco1)N(C(=O)N1CCCCC1)c1ccccc1` gave a TGI of over 100 µM.
Work on `OCc1ccc2c(c1)CC1(C2)Cc2cc3c(cc2C1O)CCC3` (centres undefined) yielded a TGI of 23.8 µM.

These compounds were tested on SK-OV-3 ovarian (assay: inhibition of tumour cell growth, NCI panel, 48 h).
For `COC(=O)C(Cc1cn(C(C)n2cc(CC(NC(C)=O)C(=O)OC)c3ccccc32)c2ccccc12)NC(C)=O` (centres undefined), the TGI was over 100 µM.
`OCc1cn(Cc2ccccc2)c2ccccc12` was tested, and the TGI was over 100 µM.
`O=C1C=C[C@H](O)[C@@]2(CO)O[C@@H]12` was tested, and the GI50 was 28.4 µM and the TGI was over 96.1 µM.
`O=C(c1ccco1)N(C(=O)N1CCCCC1)c1ccccc1` gave a TGI of over 100 µM.
`OCc1ccc2c(c1)CC1(C2)Cc2cc3c(cc2C1O)CCC3` (centres undefined) showed a TGI of 46.6 µM.

The compounds below were run on SNB-75 CNS (assay: inhibition of tumour cell growth, NCI panel, 48 h).
For `COC(=O)C(Cc1cn(C(C)n2cc(CC(NC(C)=O)C(=O)OC)c3ccccc32)c2ccccc12)NC(C)=O` (centres undefined), the TGI was 83.3 µM.
In the case of `OCc1cn(Cc2ccccc2)c2ccccc12`, the TGI was 5.64 µM.
Work on `CC(=O)O[C@@H](c1nccn1Cc1ccccc1)[C@H]1OC(C)(C)O[C@@H]1[C@H]1COC(C)(C)O1` yielded a TGI of over 100 µM.
`O=C1C=C[C@H](O)[C@@]2(CO)O[C@@H]12` showed a GI50 of 11.3 µM and a TGI of 23.4 µM.
With `OCc1ccc2c(c1)CC1(C2)Cc2cc3c(cc2C1O)CCC3` (centres undefined) the TGI was 16.8 µM.

The compounds below were run on NCI/ADR-RES ovarian (assay: inhibition of tumour cell growth, NCI panel, 48 h).
`OCc1cn(Cc2ccccc2)c2ccccc12` showed a TGI of 42.4 µM.
For `CC(=O)O[C@@H](c1nccn1Cc1ccccc1)[C@H]1OC(C)(C)O[C@@H]1[C@H]1COC(C)(C)O1`, the TGI was over 100 µM.
With `O=C1C=C[C@H](O)[C@@]2(CO)O[C@@H]12` the GI50 was 16.6 µM and the TGI was 45.8 µM.
In the case of `O=C(c1ccco1)N(C(=O)N1CCCCC1)c1ccccc1`, the TGI was over 100 µM.
`OCc1ccc2c(c1)CC1(C2)Cc2cc3c(cc2C1O)CCC3` (centres undefined) showed a TGI of 12.3 µM.

What follows are compounds tested on LOX IMVI melanoma (assay: inhibition of tumour cell growth, NCI panel, 48 h).
Compound `OCc1cn(Cc2ccccc2)c2ccccc12` has a TGI of over 45.3 µM.
With `CC(=O)O[C@@H](c1nccn1Cc1ccccc1)[C@H]1OC(C)(C)O[C@@H]1[C@H]1COC(C)(C)O1` the TGI was over 100 µM.
Work on `O=C1C=C[C@H](O)[C@@]2(CO)O[C@@H]12` yielded a GI50 of 5.51 µM and a TGI of 19.8 µM.
Work on `O=C(c1ccco1)N(C(=O)N1CCCCC1)c1ccccc1` yielded a TGI of over 100 µM.
With `OCc1ccc2c(c1)CC1(C2)Cc2cc3c(cc2C1O)CCC3` (centres undefined) the TGI was 19.4 µM.

What follows are compounds tested on IGROV1 ovarian (assay: inhibition of tumour cell growth, NCI panel, 48 h).
Compound `COC(=O)C(Cc1cn(C(C)n2cc(CC(NC(C)=O)C(=O)OC)c3ccccc32)c2ccccc12)NC(C)=O` (centres undefined) has a TGI of over 100 µM.
For `OCc1cn(Cc2ccccc2)c2ccccc12`, the TGI was 2.09 µM.
Compound `CC(=O)O[C@@H](c1nccn1Cc1ccccc1)[C@H]1OC(C)(C)O[C@@H]1[C@H]1COC(C)(C)O1` has a TGI of over 100 µM.
In the case of `O=C1C=C[C@H](O)[C@@]2(CO)O[C@@H]12`, the GI50 was 10.1 µM and the TGI was 29.8 µM.
`O=C(c1ccco1)N(C(=O)N1CCCCC1)c1ccccc1` gave a TGI of over 100 µM.
`OCc1ccc2c(c1)CC1(C2)Cc2cc3c(cc2C1O)CCC3` (centres undefined) gave a TGI of 26.8 µM.

These compounds were tested on BT-549 breast (assay: inhibition of tumour cell growth, NCI panel, 48 h).
For `COC(=O)C(Cc1cn(C(C)n2cc(CC(NC(C)=O)C(=O)OC)c3ccccc32)c2ccccc12)NC(C)=O` (centres undefined), the TGI was over 100 µM.
Compound `OCc1cn(Cc2ccccc2)c2ccccc12` has a TGI of 23.1 µM.
`CC(=O)O[C@@H](c1nccn1Cc1ccccc1)[C@H]1OC(C)(C)O[C@@H]1[C@H]1COC(C)(C)O1` was tested, and the TGI was over 100 µM.
`O=C1C=C[C@H](O)[C@@]2(CO)O[C@@H]12` gave a GI50 of 12.4 µM and a TGI of 25.5 µM.
For `O=C(c1ccco1)N(C(=O)N1CCCCC1)c1ccccc1`, the TGI was over 100 µM.
For `OCc1ccc2c(c1)CC1(C2)Cc2cc3c(cc2C1O)CCC3` (centres undefined), the TGI was 16 µM.

The compounds below were run on SR leukemia (assay: inhibition of tumour cell growth, NCI panel, 48 h).
Compound `COC(=O)C(Cc1cn(C(C)n2cc(CC(NC(C)=O)C(=O)OC)c3ccccc32)c2ccccc12)NC(C)=O` (centres undefined) has a TGI of over 100 µM.
Compound `OCc1cn(Cc2ccccc2)c2ccccc12` has a TGI of over 100 µM.
`O=C1C=C[C@H](O)[C@@]2(CO)O[C@@H]12` was tested, and the GI50 was 4.64 µM and the TGI was over 100 µM.
In the case of `OCc1ccc2c(c1)CC1(C2)Cc2cc3c(cc2C1O)CCC3` (centres undefined), the TGI was over 21.7 µM.

Each compound was assayed on HS 578T breast (assay: inhibition of tumour cell growth, NCI panel, 48 h).
`COC(=O)C(Cc1cn(C(C)n2cc(CC(NC(C)=O)C(=O)OC)c3ccccc32)c2ccccc12)NC(C)=O` (centres undefined) was tested, and the TGI was over 100 µM.
Compound `OCc1cn(Cc2ccccc2)c2ccccc12` has a TGI of 30.4 µM.
`CC(=O)O[C@@H](c1nccn1Cc1ccccc1)[C@H]1OC(C)(C)O[C@@H]1[C@H]1COC(C)(C)O1` gave a TGI of over 100 µM.
Compound `O=C1C=C[C@H](O)[C@@]2(CO)O[C@@H]12` has a GI50 of 30.6 µM and a TGI of over 83.6 µM.
`O=C(c1ccco1)N(C(=O)N1CCCCC1)c1ccccc1` showed a TGI of over 100 µM.
`OCc1ccc2c(c1)CC1(C2)Cc2cc3c(cc2C1O)CCC3` (centres undefined) showed a TGI of 11.4 µM.

These compounds were tested on NCI-H460 lung (assay: inhibition of tumour cell growth, NCI panel, 48 h).
With `COC(=O)C(Cc1cn(C(C)n2cc(CC(NC(C)=O)C(=O)OC)c3ccccc32)c2ccccc12)NC(C)=O` (centres undefined) the TGI was over 100 µM.
Work on `OCc1cn(Cc2ccccc2)c2ccccc12` yielded a TGI of 35.8 µM.
Compound `CC(=O)O[C@@H](c1nccn1Cc1ccccc1)[C@H]1OC(C)(C)O[C@@H]1[C@H]1COC(C)(C)O1` has a TGI of over 100 µM.
`O=C1C=C[C@H](O)[C@@]2(CO)O[C@@H]12` was tested, and the GI50 was 26.8 µM and the TGI was over 66.1 µM.
Work on `OCc1ccc2c(c1)CC1(C2)Cc2cc3c(cc2C1O)CCC3` (centres undefined) yielded a TGI of 17.1 µM.

The compounds below were run on TK-10 renal (assay: inhibition of tumour cell growth, NCI panel, 48 h).
`COC(=O)C(Cc1cn(C(C)n2cc(CC(NC(C)=O)C(=O)OC)c3ccccc32)c2ccccc12)NC(C)=O` (centres undefined) showed a TGI of over 100 µM.
Compound `CC(=O)O[C@@H](c1nccn1Cc1ccccc1)[C@H]1OC(C)(C)O[C@@H]1[C@H]1COC(C)(C)O1` has a TGI of over 100 µM.
For `O=C1C=C[C@H](O)[C@@]2(CO)O[C@@H]12`, the GI50 was 16.1 µM and the TGI was 29.8 µM.
Compound `O=C(c1ccco1)N(C(=O)N1CCCCC1)c1ccccc1` has a TGI of over 100 µM.
`OCc1ccc2c(c1)CC1(C2)Cc2cc3c(cc2C1O)CCC3` (centres undefined) showed a TGI of 67.1 µM.

Each compound was assayed on CCRF-CEM leukemia (assay: inhibition of tumour cell growth, NCI panel, 48 h).
`COC(=O)C(Cc1cn(C(C)n2cc(CC(NC(C)=O)C(=O)OC)c3ccccc32)c2ccccc12)NC(C)=O` (centres undefined) gave a TGI of over 100 µM.
Work on `OCc1cn(Cc2ccccc2)c2ccccc12` yielded a TGI of over 40.9 µM.
`CC(=O)O[C@@H](c1nccn1Cc1ccccc1)[C@H]1OC(C)(C)O[C@@H]1[C@H]1COC(C)(C)O1` gave a TGI of over 100 µM.
For `O=C1C=C[C@H](O)[C@@]2(CO)O[C@@H]12`, the GI50 was 2.7 µM and the TGI was 12.3 µM.
Work on `O=C(c1ccco1)N(C(=O)N1CCCCC1)c1ccccc1` yielded a TGI of over 100 µM.
For `OCc1ccc2c(c1)CC1(C2)Cc2cc3c(cc2C1O)CCC3` (centres undefined), the TGI was over 44.9 µM.

These compounds were tested on UO-31 renal (assay: inhibition of tumour cell growth, NCI panel, 48 h).
In the case of `COC(=O)C(Cc1cn(C(C)n2cc(CC(NC(C)=O)C(=O)OC)c3ccccc32)c2ccccc12)NC(C)=O` (centres undefined), the TGI was over 100 µM.
Work on `OCc1cn(Cc2ccccc2)c2ccccc12` yielded a TGI of over 100 µM.
Work on `CC(=O)O[C@@H](c1nccn1Cc1ccccc1)[C@H]1OC(C)(C)O[C@@H]1[C@H]1COC(C)(C)O1` yielded a TGI of over 100 µM.
Work on `O=C1C=C[C@H](O)[C@@]2(CO)O[C@@H]12` yielded a GI50 of 10.4 µM and a TGI of 24 µM.
In the case of `O=C(c1ccco1)N(C(=O)N1CCCCC1)c1ccccc1`, the TGI was over 100 µM.
For `OCc1ccc2c(c1)CC1(C2)Cc2cc3c(cc2C1O)CCC3` (centres undefined), the TGI was 24.1 µM.

These compounds were tested on SF-268 CNS (assay: inhibition of tumour cell growth, NCI panel, 48 h).
`COC(=O)C(Cc1cn(C(C)n2cc(CC(NC(C)=O)C(=O)OC)c3ccccc32)c2ccccc12)NC(C)=O` (centres undefined) was tested, and the TGI was over 100 µM.
In the case of `OCc1cn(Cc2ccccc2)c2ccccc12`, the TGI was 40.2 µM.
`CC(=O)O[C@@H](c1nccn1Cc1ccccc1)[C@H]1OC(C)(C)O[C@@H]1[C@H]1COC(C)(C)O1` showed a TGI of over 100 µM.
`O=C1C=C[C@H](O)[C@@]2(CO)O[C@@H]12` was tested, and the GI50 was 15.3 µM and the TGI was 29 µM.
In the case of `O=C(c1ccco1)N(C(=O)N1CCCCC1)c1ccccc1`, the TGI was over 100 µM.
For `OCc1ccc2c(c1)CC1(C2)Cc2cc3c(cc2C1O)CCC3` (centres undefined), the TGI was over 72.7 µM.

What follows are compounds tested on 786-0 renal (assay: inhibition of tumour cell growth, NCI panel, 48 h).
Compound `OCc1cn(Cc2ccccc2)c2ccccc12` has a TGI of over 53 µM.
Compound `CC(=O)O[C@@H](c1nccn1Cc1ccccc1)[C@H]1OC(C)(C)O[C@@H]1[C@H]1COC(C)(C)O1` has a TGI of over 100 µM.
`O=C1C=C[C@H](O)[C@@]2(CO)O[C@@H]12` gave a GI50 of 16.4 µM and a TGI of 30 µM.
`O=C(c1ccco1)N(C(=O)N1CCCCC1)c1ccccc1` was tested, and the TGI was over 100 µM.
Compound `OCc1ccc2c(c1)CC1(C2)Cc2cc3c(cc2C1O)CCC3` (centres undefined) has a TGI of 45.6 µM.
